Patent US11957127B1, “1,3-bis(naphthalen-2-yloxy)propan-2-one as an eco-friendly insecticidal agent against Spodoptera littoralis (boisd.)” (priority 2023, dated 2024)
Values after ≈ are worked out from the molar mass of the structure shown. Like-named read-outs stand apart in the source and are kept apart here.

Tested on: Spodoptera littoralis
Test: Insecticidal bioassay screening (castor leaf dip, larval mortality)
Format: in vivo
Conditions: for Toxic ratio: 72 h, fenoxycarb's LC50 / compound's LC50 × 100
Procedure: Five concentrations (200, 100, 50, 25, 12.5 ppm) were designed for this synthetic compound and the reference fenoxycarb compound as the dynamic ingredients based on ppm via diluting the commercial formulation.
In this experiment, castor leaves are immersed in each of the previously prepared concentrations of the components for 10 seconds and then left to dry for 60 minutes. Larvae of the second and fourth instars of each checked strain are prepared with treated leaves in gauze-covered glass containers for 72 hrs. An untreated control is made in which leaves are dipped in triton x-100 and distilled water only. Then the preserved leaves were removed & fresh, untreated leaves were provided for 72 hours. Three replicates (10 larvae each) were checked for each concentration. Daily inspection was carried out for all treatments and mortality percentages were recorded 3 days (72 hours) after treatment. The average mortality percentage was corrected employing Abbott's formula. The corrected mortality rate for each of the previously synthesized compounds is statistically calculated according to Finney (1970). Through this rate, the corresponding concentration test lines (LDP lines) are assessed. Fifty and ninety percent mortality are determined, and the regression values for the checked products were previously evaluated.

[1] = 2nd instar larvae of S. littoralis, after 72 h of treatment
[2] = 4th instar larvae of S. littoralis, after 72 h of treatment

Which results are given for `O=C(COc1ccc2ccccc2c1)COc1ccc2ccccc2c1` [Compound 4, 1,3-bis(naphthalen-2-yloxy)propan-2-one]?
LC50 [1]: 38.69 ppm; LC50 (2nd instar larvae of S. littoralis, after 72 h of treatment, listed as 1,3-bis(naphthalen-2-yloxy)propan-2-one): about 38.69 ppm; Toxic ratio (2nd instar larvae): 7.0; LC50 [2]: 86.921 ppm; LC50 (4th instar larvae of S. littoralis, after 72 h of treatment, listed as 1,3-bis(naphthalen-2-yloxy)propan-2-one): about 86.921 ppm; Toxic ratio (4th instar larvae): 49.7; activity against Spodoptera littoralis (in words) (compared with reference insecticide fenoxycarb): active; LC50 (foliar, against Spodoptera littoralis under laboratory conditions (instar not given), read-out: LC50): 38.7 µg/mL (≈ 113 µM)

`CCOC(=O)NCCOc1ccc(Oc2ccccc2)cc1` [Fenoxycarb, reference compound] was tested. Which LC50 [1] did it give?
The LC50 was 2.73 ppm.

What about the Toxic ratio (2nd instar larvae) of the same compound?
Its Toxic ratio is 100.

What about the LC50 [2] of the same compound?
The LC50 was 43.231 ppm.

What about the Toxic ratio (4th instar larvae) of the same compound?
The Toxic ratio was 1.

What about the LC50 (Spodoptera littoralis, foliar) of the same compound?
Its LC50 is 2.73 µg/mL (≈ 9.06 µM).
